Experiments:
[1] = system: HeLa cells; assay: Cytotoxicity assay (LDH release); format: cell-based, human; settings: 50 µM, 24 h, LDH release, Triton X-100 = 100%
Experimental: HeLa cells were acquired from American Type Culture Collection (ATCC) of identification ATCC CCL-2, Singapore. The cells are utilized to conduct cytotoxicity and cytopathogenicity assays. Through their cultivation in complete media, the cells were grown, and then they were placed in a 95% humidifying incubator at 37 °C and 5% CO2. Complete medium comprises Roswell Park Memorial Media (RPMI), 1% penicillin–streptomycin, 1% minimum essential medium amino acids, 1% L-glutamine, and 10% fetal bovine serum (FBS). To determine the toxicity of the compounds against human HeLa cells, cytotoxicity assays were conducted. In short, HeLa cells were cultured in 96-well plates and treated with the compounds. The plate was then placed in a humidifying incubator with 95% humidity and 5% CO2, at 37 °C, for 24 h. After 24 h, the supernatant was collected, and the cytotoxicity of the compounds was determined through a cytotoxicity detection kit that measured the quantity of lactate dehydrogenase (LDH) release. Accurate results were ensured through the addition of positive and negative controls. Untreated HeLa cells served as the negative control, whereas HeLa cells treated with 1% Triton X-100 served as the positive control. Finally, the cytotoxic properties were numerically determined by following the necessary calculations: (absorbance of media from cells treated with the drugs—absorbance of media from cells of negative control)/(absorbance of media from cells of positive control—absorbance of media from cells of negative control) × 100 [19].

[2] = system: DNA; assay: Biophysical analysis of binding with DNA; settings: in words
[3] = system: Acanthamoeba castellanii on HeLa cell monolayers; assay: Cytopathogenicity assay (amoeba-mediated host-cell death); format: cell-based; settings: amoebae pretreated with 50 µM for 2 h, then 24 h on HeLa cells, negative control 100%
Experimental: Amoeba-mediated host-cell death was determined by treating 5 × 10^5 amoebae with 50 µM of compounds. The amoeba-containing plate was then placed in the incubator for 2 h at 30 °C. Following the 2 h incubation period, the treated amoebae were put on confluent HeLa cell monolayers. The plate containing the treated amoebae and HeLa cells was incubated for 24 h. Progressing the incubation period, the supernatant was collected, and the cytotoxicity was determined. Accurate results were ensured through the addition of negative and positive controls. The untreated amoebae, alone, on the cells served as the negative control, while the cells treated with Triton X-100 served as the positive control.

[4] = system: Acanthamoeba castellanii; assay: Encystation assay; format: cell-based; settings: 16% glucose, 48 h, negative control 100% cysts
Experimental: The effects of the compounds on amoeba encystation were determined through the conduction of encystation assays. Briefly, 1 × 10^6 trophozoites were incubated with the compounds in a final concentration of 16% filter-sterilized glucose. Following a 48 h incubation period, 0.1% SDS was added per well for 20 min. The cysts were then counted by using a haemocytometer. To ensure accuracy, Acanthamoeba castellanii was cultured in 16% glucose, serving as the negative control.

[5] = system: Acanthamoeba castellanii cysts; assay: Excystation assay; format: cell-based; settings: cysts in PYG, negative control 100%, read-out: viable trophozoites (re-emergence of cysts to trophozoites)
Experimental: Amoeba culture was suspended in 3 mL phosphate-buffered saline (PBS) and placed on non-nutrient bacteriological agar plates to allow for the growing of Acanthamoeba castellanii cysts. After two weeks, PBS was applied to plates containing amoeba cysts, which were then scraped off. The amoebae were centrifuged at 3000× g for 10 min, and the resulting pellet was resuspended in RPMI. The 5 × 10^5 cysts were then incubated in PYG, along with 50 µM of the compounds. To ensure accuracy, amoeba cysts in PYG alone were considered as the negative control, whereas amoeba cysts in RPMI alone were taken as the positive control, as the cysts would not be able to revert back to trophozoites. The amoeba trophozoites were then numbered by using a haemocytometer.

[6] = system: Acanthamoeba castellanii; assay: Amoebicidal assay; format: cell-based, Acanthamoeba castellanii genotype T4 (ATCC 50492)
Experimental: Acanthamoeba castellanii genotype T4 (ATCC 50492) was cultivated in 10 mL growth medium of peptone yeast glucose (PYG) in tissue flasks (Baig, et al., 2021; Anwar, et al., 2019). The growth medium, PYG, consists of 0.75% proteose peptone, 0.75% yeast extract, and 1.5% glucose. Next, the amoebae were kept in tissue flasks and incubated at 30 °C.
To determine the compounds’ antiamoebic effects, amoebicidal assays were conducted. The 5 × 10^5 amoebae were placed in a 24-well plate and brought to a final volume of 500 µL. […] The 24-well plate was then placed in a 30 °C incubator for 24 h. Positive and negative controls were added to the assay in order to ensure reliable results. Serving as the negative control was the amoebae alone, with RPMI [4]. Meanwhile, amoebae, along with 0.25% sodium dodecyl sulphate (SDS), were used as the positive control. Through the addition of 0.1% methylene blue, live and dead amoebae were distinguished. Additionally, significant compounds were identified by conducting a Student’s t-test with a two-tailed distribution. Furthermore, the MIC50 values of three compounds were determined by using concentrations of […], 75, and 100 µM.

With `CN(C)CCCNC(=O)c1cc(NC(=O)c2cc(NC(=O)c3cc(NC(=O)c4nccn4C)cn3C)cn2C)cn1C` [MGB5, N-(5-((5-((5-((3-(dimethylamino)propyl)carbamoyl)-1-methyl-1H-pyrrol-3-yl)carbamoyl)-1-methyl-1H-pyrrol-3-yl)carbamoyl)-1-methyl-1H-pyrrol-3-yl)-1-methyl-1H-imidazole-2-carboxamide] the “cytotoxicity against human HeLa cells” value [1] was 10.9%, the “ability to bind with DNA” value [2] was “bind with DNA” and the “amoeba-mediated host-cell death (cytotoxic activity due to amoeba)” value [3] was 57.8%. It also gave a cysts present [4] of 48.3%, a viability at 50 µM [5] of 80.8% and a viability at 50 µM ([6]; Acanthamoeba castellanii, 50 µM, 24 h, negative control 100%, read-out: amoeba viability) of 98.4%. For the same compound, the “activity against Acanthamoeba castellanii” value ([6]; in words) was “no activity”.

Reference: publication PMC9312114, “Synthesis and Evaluation of Novel DNA Minor Groove Binders as Antiamoebic Agents” (Antibiotics, 2022)
